ChEMBL document CHEMBL1135870, “4-Aminoquinolines as a novel class of NR1/2B subtype selective NMDA receptor antagonists” (Bioorg Med Chem Lett, 2002)

Key:
[1] = target: Glutamate NMDA receptor; experiment: Binding affinity against N-methyl-D-aspartate glutamate receptor using [3H]25-6981 as radioligand.; assay type: protein-complex assay
[2] = system: Mus musculus; experiment: In vivo effective dose required for 50% inhibition of sound induced seizures upon intraperitoneal dose, 30 min before testing in DBA/2 mice.; assay type: functional; conditions: ip
[3] = The ionization constant for the compound was tested using a potentiometric method.; assay type: physicochemical

SMILES	Ki [1] [nM]	pKa [3]	ED50 [2] [mg/kg]
OCC(O)CNc1cc(C2CCc3ccccc3C2)nc2ccccc12 (stereo in doubt; 19)	100	–	–
CCCNc1cc(-c2ccccc2)nc2ccccc12	4900	–	–
CC(C)Oc1ccc(-c2cc(NCC(O)CO)c3ccccc3n2)cc1 (stereo not given)	500	–	–
COCCNc1cc(-c2ccccc2)nc2ccccc12	7500	–	–
OCC(O)CNc1ccnc2ccccc12 (stereo not given)	> 35000	–	–
OCC(O)CNc1cc(-c2ccccc2)nc2ccccc12 (stereo not given)	260	8.4	–
C[C@H](O)CNc1cc(-c2ccccc2)nc2ccccc12	75	–	–
OCCNc1cc(-c2ccccc2)nc2ccccc12	110	–	–
Cc1cc(NCC(O)CO)c2ccccc2n1 (stereo not given)	> 40000	–	–
Nc1cc(-c2ccccc2)nc2ccccc12	413	8.5	–
CC(O)CNc1cc(-c2ccccc2)nc2ccccc12 (stereo not given)	260	–	–
CC(=O)CNc1cc(-c2ccccc2)nc2ccccc12	7900	–	–
OCC(O)CNc1cc(-c2ccc(O)cc2)nc2ccccc12 (stereo not given)	> 4000	–	–
CCCCc1cc(NCC(O)CO)c2ccccc2n1 (stereo not given)	33000	–	–
C[C@@H](O)CNc1cc(-c2ccccc2)nc2ccccc12	450	–	–
COc1ccc(-c2cc(NCC(O)CO)c3ccccc3n2)cc1C (stereo not given)	26	–	–
Cc1ccccc1-c1cc(NCC(O)CO)c2ccccc2n1 (stereo not given)	3700	–	–
c1ccc(-c2ccc3ccccc3n2)cc1 [2-PHENYLQUINOLINE]	> 35000	5.2	–
OCC(O)CNc1cc(-c2ccc(Cl)cc2)nc2ccccc12 (stereo not given)	100	–	–

Stronger by Ki [1], values ahead:

Ki [1] [nM]	pKa [3]	SMILES	ED50 [2] [mg/kg]
23	–	Cc1ccc(-c2cc(NCC(O)CO)c3ccccc3n2)cc1 (stereo not given)	–
22	–	OCC(O)CNc1cc(-c2ccc3c(c2)CCCC3)nc2ccccc12 (stereo not given)	–
19	–	COc1ccc(-c2cc(NCC(O)CO)c3ccccc3n2)cc1 (stereo not given)	–
17	–	Cc1ccc(-c2cc(NCC(O)CO)c3ccccc3n2)cc1Cl (stereo not given)	–
15	–	COc1ccc(-c2cc(NCCO)c3ccccc3n2)cc1	25
11	–	OCC(O)CNc1cc(C2CCc3ccccc3C2)nc2ccccc12 (stereo in doubt; 20)	–
10	–	Cc1ccc(-c2cc(NC[C@H](C)O)c3ccccc3n2)cc1Cl	12
10	–	COc1ccc(-c2cc(NC[C@H](C)O)c3ccccc3n2)cc1C	17
3.5	–	OCCNc1cc(N2CCc3ccccc3C2)nc2ccccc12	< 12
